Measured values from patent publication US8598365B2, “Herbicides” (Syngenta Limited, priority 2007, dated 2013).

How the values were obtained:
Type in all cases: in vivo
[1] = tested on: Amaranthus retoflexus (AMARE); experiment: Example B pre-emergence herbicidal activity; settings: Amaranthus retroflexus, 312 h, rate 250 g/ha, evaluated after 13 days, read-out: Pre-Emergence Activity AMARE (100=total damage to plant; 0=no damage to plant)
Procedure: (§1) Seeds of a variety of test species were sown in standard soil in pots. After cultivation for one day (pre-emergence) or after 8 days cultivation (post-emergence) under controlled conditions in a glasshouse (at 24/16° C., day/night; 14 hours light; 65% humidity), the plants were sprayed with an aqueous spray solution derived from the formulation of the technical active ingredient in acetone/water (50:50) solution containing 0.5% Tween 20 (polyoxyethelyene sorbitan monolaurate, CAS RN 9005-64-5).
(§2) The test plants were then grown in a glasshouse under controlled conditions in a glasshouse (at 24/16° C., day/night; 14 hours light; 65% humidity) and watered twice daily. After 13 days for pre and post-emergence, the test was evaluated (100=total damage to plant; 0=no damage to plant).
(§3) Alopecurus myosuroides (ALOMY), Avena fatua (AVEFA), Setaria faberi (SETFA), Echinochloa crus-galli (ECHCG), Solanum nigrum (SOLNI) and Amaranthus retoflexus (AMARE)

[2] = tested on: Echinochloa crus-galli (ECHCG); experiment: Example B pre-emergence herbicidal activity; settings: 312 h, rate 250 g/ha, evaluated after 13 days, read-out: Pre-Emergence Activity ECHCG (100=total damage to plant; 0=no damage to plant)
Procedure: as §1, §2, §3

[3] = tested on: Avena fatua (AVEFA); experiment: Example B pre-emergence herbicidal activity; settings: 312 h, rate 250 g/ha, evaluated after 13 days, read-out: Pre-Emergence Activity AVEFA (100=total damage to plant; 0=no damage to plant)
Procedure: as §1, §2, §3

[4] = tested on: Alopecurus myosuroides (ALOMY); experiment: Example B pre-emergence herbicidal activity; settings: 312 h, rate 250 g/ha, evaluated after 13 days, read-out: Pre-Emergence Activity ALOMY (100=total damage to plant; 0=no damage to plant)
Procedure: as §1, §2, §3

[5] = tested on: Setaria faberi (SETFA); experiment: Example B pre-emergence herbicidal activity; settings: 312 h, rate 250 g/ha, evaluated after 13 days, read-out: Pre-Emergence Activity SETFA (100=total damage to plant; 0=no damage to plant)
Procedure: as §1, §2, §3

[6] = tested on: Amaranthus retoflexus (AMARE); experiment: Example B post-emergence herbicidal activity; settings: Amaranthus retroflexus, 312 h, rate 250 g/ha, evaluated after 13 days, read-out: Post-emergence activity AMARE (100=total damage to plant; 0=no damage to plant)
Procedure: as §1, §2, §3

[7] = tested on: Echinochloa crus-galli (ECHCG); experiment: Example B post-emergence herbicidal activity; settings: 312 h, rate 250 g/ha, evaluated after 13 days, read-out: Post-emergence activity ECHCG (100=total damage to plant; 0=no damage to plant)
Procedure: as §1, §2, §3

[8] = tested on: Avena fatua (AVEFA); experiment: Example B post-emergence herbicidal activity; settings: 312 h, rate 250 g/ha, evaluated after 13 days, read-out: Post-emergence activity AVEFA (100=total damage to plant; 0=no damage to plant)
Procedure: as §1, §2, §3

[9] = tested on: Alopecurus myosuroides (ALOMY); experiment: Example B post-emergence herbicidal activity; settings: 312 h, rate 250 g/ha, evaluated after 13 days, read-out: Post-emergence activity ALOMY (100=total damage to plant; 0=no damage to plant)
Procedure: as §1, §2, §3

[10] = tested on: Setaria faberi (SETFA); experiment: Example B post-emergence herbicidal activity; settings: 312 h, rate 250 g/ha, evaluated after 13 days, read-out: Post-emergence activity SETFA (100=total damage to plant; 0=no damage to plant)
Procedure: as §1, §2, §3

| SMILES | pest or weed control at 250 g/ha [1] [%] | pest or weed control at 250 g/ha [2] [%] | pest or weed control at 250 g/ha [3] [%] | pest or weed control at 250 g/ha [4] [%] | pest or weed control at 250 g/ha [5] [%] | pest or weed control at 250 g/ha [6] [%] | pest or weed control at 250 g/ha [7] [%] | pest or weed control at 250 g/ha [8] [%] | pest or weed control at 250 g/ha [9] [%] | pest or weed control at 250 g/ha [10] [%] |
| --- | --- | --- | --- | --- | --- | --- | --- | --- | --- | --- |
| CCc1sc(-c2ccc(Cl)cc2)nc1C1=C(OC(=O)C2CC2)C2CCC(C2)C1=O (stereo not shown) [Compound P1] | 0 | 100 | 0 | 80 | 100 | 0 | 100 | 100 | 100 | 100 |
| CCc1sc(-c2ccc(Cl)cc2)nc1C1=C(OC(=O)C(C)(C)C)C2CCC(C2)C1=O (stereo not shown) [Compound P2, 2,2-dimethylpropionic acid 3-[2-(4-chloro-phenyl)-5-ethylthiazol-4-yl]-4-oxobicyclo[3.2.1]oct-2-en-2-yl ester] | 0 | 100 | 40 | 80 | 100 | 0 | 100 | 100 | 100 | 100 |
| Cc1sc(-c2ccc(Cl)c(Cl)c2)nc1C1=C(OC(=O)C(C)(C)C)[C@H]2CC[C@H](C2)C1=O [Compound P3] | 0 | 80 | 0 | 20 | 100 | 0 | 80 | 0 | 60 | 100 |
| Cc1sc(-c2ccc(Cl)c(C(F)(F)F)c2)nc1C1=C(OC(=O)C(C)(C)C)[C@H]2CC[C@H](C2)C1=O [Compound P4] | 40 | 0 | 0 | 0 | 90 | 0 | 80 | 0 | 20 | 80 |
| CCOC(=O)/C=C/OC1=C(c2nc(-c3ccc(Cl)cc3)sc2CC)C(=O)[C@H]2CC[C@@H]1C2 [Compound P5] | 0 | 40 | 30 | 100 | 100 | 0 | 100 | 90 | 100 | 100 |
| CC(=O)OC1=C(c2nc(-c3ccc(Br)cn3)sc2C)C(=O)[C@H]2CC[C@@H]1C2 [Compound P6] | 0 | 20 | 0 | 20 | 100 | 0 | 100 | 80 | 90 | 100 |
| Cc1sc(-c2ccc(Br)cn2)nc1C1=C(OC(=O)C2CC2)[C@@H]2CC[C@@H](C2)C1=O [Compound P7] | 0 | 20 | 0 | 30 | 90 | 0 | 100 | 90 | 90 | 100 |
| Cc1sc(-c2ccc(Br)cn2)nc1C1=C(OC(=O)C(C)(C)C)[C@@H]2CC[C@@H](C2)C1=O [Compound P8] | 0 | 50 | 0 | 20 | 100 | 0 | 0 | 80 | 70 | 100 |
| CCc1sc(-c2ccc(Cl)cc2)nc1C1=C(OC(=C(C#N)C#N)C(F)(F)F)[C@@H]2CC[C@@H](C2)C1=O [Compound P9] | 0 | 90 | 100 | 90 | 100 | 0 | 100 | 100 | 100 | 100 |
| CCOC(=O)COC1=C(c2sc(-c3ccc(Cl)cc3)nc2C)C(=O)[C@H]2CC[C@@H]1C2 [Compound P11] | 0 | 0 | 0 | 0 | 80 | 0 | 80 | 20 | 20 | 80 |
| CC(=O)OC1=C(c2nc(-c3ccc(Br)cc3C)sc2C)C(=O)[C@H]2CC[C@@H]1C2 [Compound P12] | 0 | 20 | 20 | 30 | 100 | 0 | 100 | 90 | 100 | 100 |
| Cc1cc(Br)ccc1-c1nc(C2=C(OC(=O)C3CC3)[C@@H]3CC[C@@H](C3)C2=O)c(C)s1 [Compound P13] | 0 | 50 | 100 | 70 | 100 | 0 | 100 | 90 | 90 | 100 |
| Cc1cc(Br)ccc1-c1nc(C2=C(OC(=O)C(C)(C)C)[C@@H]3CC[C@@H](C3)C2=O)c(C)s1 [Compound P14] | 0 | 100 | 100 | 70 | 100 | 0 | 100 | 90 | 100 | 100 |
| CCc1sc(-c2ccc(C)cc2)nc1C1=C(OC(C)=O)[C@H]2CC[C@H](C2)C1=O [Compound P15] | 0 | 100 | 60 | 90 | 90 | 0 | 100 | 90 | 100 | 100 |
| Cc1cc(-c2nc(C3C(=O)[C@@H]4CC[C@@H](C4)C3=O)c(C)s2)ccc1Cl (stereo partly shown) [Compound T4] | 0 | 60 | 0 | 50 | 30 | 0 | 100 |  | 60 | 80 |
| O=C1C(c2cncc(Cl)c2)C(=O)[C@H]2CC[C@@H]1C2 (stereo partly shown) [Compound T85] | 30 | 0 | 0 | 0 | 0 |  |  |  |  |  |
